This note sets out measurements from US11814376B2, “Hepatitis b core protein modulators” (Assembly Biosciences, Inc., priority 2015, dated 2023).

Data set [1] has as its system AD38 cells. The data set can be described thus: Viability of AD38 cells (Promega CellTiter-Glo). The format is cell-based. Conditions: 10 μM compound, 6 days, CellTiter-Glo luminescence normalized to DMSO control (100%). Summed up:
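AD38 cells were seeded at 50,000/well on collagen-coated plates and treated with compound added as a 10× solution in 10% DMSO for 6 days at 37° C. Viability was measured by CellTiter-Glo luminescence in tetracycline-free medium with 2% FBS and 1% DMSO, and expressed as percent of DMSO control.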

The subject of data set [2] is HBV viral load in AD38 cells. The data set can be described thus: Viral load production in AD38 cells, quantitative PCR of the core sequence in supernatant. The note with it: Hepatitis B virus, 144 h, 10 μM compound, 6 days at 37° C., supernatant qPCR, relative to DMSO control; read-out: AD38 Viral Load (%) (VL with cmpd/VL in DMSO control) at 10 μM. The class given is cell-based.

`Cl.NCc1cnc(-c2ncc(CNC(=O)c3ccc4c(c3)NC(=O)c3ccccc3S4)s2)s1` [compound 1735, N-((5′-(aminomethyl)-[2, 2′-bithiazol]-5-yl)methyl)-11-oxo-10, 11-dihydrodibenzo [b, f] [1, 4] thiazepine-8-carboxamide hydrochloride]: the “AD38 Viability Normalized Result (cmpd/DMSO %) at 10 μM” value in data set [1] is listed as 92%. For the same molecule, in data set [2], the activity at 10 µM was determined as 3.1%.

`Cc1cc(-c2ncc(CNC(=O)c3ccc4c(c3)NC(=O)c3ccccc3O4)s2)ccc1O` [compound 1736, N-((2-(4-hydroxy-3-methylphenyl)thiazol-5-yl)methyl)-11-oxo-10, 11-dihydrodibenzo [b, f] [1, 4] oxazepine-8-carboxamide]: the “AD38 Viability Normalized Result (cmpd/DMSO %) at 10 μM” value in data set [1] is listed as 94%. Besides, the activity at 10 µM in data set [2] was determined as 6.8%.

With `O=C(NCc1cnc(-c2ccc3[nH]ncc3c2)s1)c1ccc2c(c1)NC(=O)c1ccccc1O2` [compound 1737], the “AD38 Viability Normalized Result (cmpd/DMSO %) at 10 μM” value in data set [1] is on record as 112%. Besides, the activity at 10 µM in data set [2] amounted to 7.2%.

As for `Cc1cc(-c2ncc(CNC(=O)c3ccc4c(c3)NC(=O)c3ccccc3O4)s2)cc(C)c1O` [compound 1738, N-((2-(4-hydroxy-3,5-dimethylphenyl)thiazol-5-yl)methyl)-11-oxo-10, 11-dihydrodibenzo [b, f] [1, 4] oxazepine-8-carboxamide], in data set [1], the “AD38 Viability Normalized Result (cmpd/DMSO %) at 10 μM” value amounted to 93%. Moreover, the activity at 10 µM in data set [2] stood at 2.9%.

In the case of `O=C(NCc1cnc(-c2ccc(O)cc2)s1)c1ccc2c(c1)NC(=O)c1cc(F)ccc1S2` [compound 1746], in data set [1], the “AD38 Viability Normalized Result (cmpd/DMSO %) at 10 μM” value is on record as 92%. Moreover, the activity at 10 µM in data set [2] amounted to 5.6%.

Consider `O=C(NCc1cnc(-c2ccc(O)cc2)s1)c1ccc2c(c1)NC(=O)c1ccc(F)cc1S2` [compound 1747], for which the “AD38 Viability Normalized Result (cmpd/DMSO %) at 10 μM” value in data set [1] is 95%. The activity at 10 µM in data set [2] was determined as 3%.

With `O=C(NCc1cnc(-c2ccc(O)cc2)s1)c1cc2c(cc1F)Sc1ccccc1C(=O)N2` [compound 1749], in data set [1], the “AD38 Viability Normalized Result (cmpd/DMSO %) at 10 μM” value is recorded as 109%. Also, the activity at 10 µM in data set [2] stood at 54.3%.

On to `O=C1Nc2c(cc(F)c(C(=O)NCc3cnc(-c4ccc(O)cc4)s3)c2F)Sc2ccccc21` [compound 1750], for which, in data set [1], the “AD38 Viability Normalized Result (cmpd/DMSO %) at 10 μM” value came out at 107%. For the same molecule, in data set [2], the activity at 10 µM worked out at 1.1%.

On to `CCN1c2ccc(C(=O)NCc3cnc(-c4ccc(O)cc4)s3)cc2NC(=O)c2ccccc21` [compound 1751], for which the “AD38 Viability Normalized Result (cmpd/DMSO %) at 10 μM” value in data set [1] came out at 18%. In addition, the activity at 10 µM in data set [2] came to 2.8%.

On to `O=C(NCc1cnc(-c2ccc(O)cc2)s1)c1ccc2c(c1)NC(=O)c1c(F)cccc1S2` [compound 1752], for which, in data set [1], the “AD38 Viability Normalized Result (cmpd/DMSO %) at 10 μM” value amounted to 98%. Besides, in data set [2], the activity at 10 µM is 29.8%.

For `O=C(NCc1cnc(-c2ccc(O)cc2)s1)c1ccc2c(c1)NC(=O)c1cccc(F)c1S2` [compound 1753], the “AD38 Viability Normalized Result (cmpd/DMSO %) at 10 μM” value in data set [1] stood at 97%. Besides, the activity at 10 µM in data set [2] came out at 2.4%.

As to `CC1c2ccc(C(=O)NCc3cnc(-c4ccc(O)cc4)s3)cc2NC(=O)c2ccccc21` (centres unmarked) [compound 1754], in data set [1], the “AD38 Viability Normalized Result (cmpd/DMSO %) at 10 μM” value came to 93%. For the same molecule, the activity at 10 µM in data set [2] is 1.6%.

On to `Cc1c(C(=O)NCc2cnc(-c3ccc(O)cc3)s2)ccc2c1NC(=O)c1ccccc1S2` [compound 1755], for which the “AD38 Viability Normalized Result (cmpd/DMSO %) at 10 μM” value in data set [1] is recorded as 93%. For the same molecule, the activity at 10 µM in data set [2] came to 0.4%.

As for `Cc1cc2c(cc1C(=O)NCc1cnc(-c3ccc(O)cc3)s1)NC(=O)c1ccccc1S2` [compound 1758], the “AD38 Viability Normalized Result (cmpd/DMSO %) at 10 μM” value in data set [1] worked out at 15%. The activity at 10 µM in data set [2] is 3.8%.

Turning to `O=C(NCc1cnc(-c2ccc(O)cc2)s1)c1ccc2c(c1)NC(=O)c1cc(Cl)ccc1S2` [compound 1760], the “AD38 Viability Normalized Result (cmpd/DMSO %) at 10 μM” value in data set [1] is 94%. In addition, the activity at 10 µM in data set [2] stood at 6.4%.

Take `O=C(NCc1cnc(-c2ccc(O)cc2)s1)c1ccc2c(c1)NC(=O)c1ccc(Cl)cc1S2` [compound 1761]: in data set [1], the “AD38 Viability Normalized Result (cmpd/DMSO %) at 10 μM” value is reported as 97%. Also, the activity at 10 µM in data set [2] worked out at 10.7%.
